# Results as given in patent US6399745B1, “Use of leptin antagonists for treating insulin resistance in type II diabetes” (Aventis Pharma Deutschland GmbH, priority 1996, dated 2002).
# Tested on: isolated rat adipocytes
# Experiment: Glucose transport (2-deoxyglucose uptake) in isolated rat adipocytes after primary culture with leptin, basal and insulin-stimulated
# Assay type: cell-based
# Protocol: Adipocytes were prepared from the epididymal fat tissue of male Wistar rats (140-160 g, Hoechst AG breeding station, Kastengrund) by means of digesting with collagenase (Rodbell, 1964, J. Biol. Chem. 239, 375-380), washed twice with KRH (25 mM Hepes free acid, 25 mM Hepes sodium salt, 80 mM NaCl, 1 mM MgSO4, 2 mM CaCl2, 6 mM KCl, 1 mM sodium pyruvate, 0.5% BSA) and once with DMEM (Dulbecco's minimal essential medium), supplemented with 5.5 mM glucose, 20 mM Hepes (pH 7.4), 2% fetal calf serum, 1% BSA, 50 U of penicillin/ml, […], by means of flotation (800×g, 1 min, in small plastic tubes), and finally diluted to a volume of 20 ml of DMEM/g wet weight of the fat tissue (cell titer: approximately 2.5×10^5 cells/ml).
# The adipocytes were incubated, at 37° C. for 15-18 h under an atmosphere of 5% CO2 and with gentle shaking, in supplemented (see above) DMEM in the presence of 100 nM phenylisopropyladenosine (4 ml of DMEM to 1 ml of cells, cell titer approximately 5×10^4 cell/ml, in 50 ml sterile polypropylene: tubes) and in the presence or absence of leptin. The adipocytes were subsequently washed three times with cold KRH and adjusted to a cell titer of approximately 3×10^5 cells/ml by adding 0.7 ml of glucose-free KRH to the cell layer which remained after the complete removal of the last washing solution. In order to determine the capacity of the adipocytes to be stimulated by insulin, and their sensitivity to insulin, following the primary culture, the washed adipocytes were incubated at 37° C. for 20 min in the absence or presence of human insulin (0.02-50 nM final concentration), and glucose transport or lipogenesis was then measured.
# Glucose transport was measured as the specific uptake of the non-metabolizable glucose analog 2-deoxyglucose (Muller and Wied, 1993, Diabetes 42, 1852-1867). 50 μl of the adipocyte suspension in KRH, which suspension had or had not been preincubated with insulin (see above), were incubated, at 25° C. for 5 min, with 50 μl of KRH which was supplemented with 2-deoxy-D-[2,6-^3H]glucose (0.5 μCi, 0.2 mM). The incubation mixtures were transferred to thin soft-plastic centrifuge tubes, each of which already contained 200 μl of dinonyl phthalate oil, and immediately centrifuged (2,000×g, 30 sec). Using special shears, the tubes were severed within the oil layer (in the vicinity of the upper edge) and the upper halves of the tubes, together with the cell layers which had in each case been floated onto the oil layer, were transferred to scintillation vials. After 10 ml of scintillation fluid (water-based) had been added, the radioactivity associated with the cells was measured. In order to correct for 2-deoxyglucose which had become enclosed in the cell interstices, or had diffused into the cells, in a non-specific manner, the radioactivity of cells which had been preincubated with cytochalasin B (20 μM) was subtracted from the total cell-associated radioactivity of each individual incubation mixture (Gliemann et al., 1972, Biochim. Biophys. Acta 286, 1-9).
# Isolated rat adipocytes were incubated for 15 h in primary culture in the presence or absence of increasing concentrations of leptin. […] The stimulation factor for insulin was calculated as the ratio between insulin-stimulated and basal activities. Each value represents the mean from two independent adipocyte cultures with activity being determined two or three times in each case.
# The cells were then washed and tested for the stimulation of glucose transport by differing concentrations of insulin. Glucose transport activity is given as a “dpm value” of the 2deoxy-[^3H]glucose which is specifically associated with the cells. Each value represents the mean from two independent adipocyte cultures with the activity being determined four times in each case.
substance,measurement,setting,value
Insulin: human insulin used to stimulate adipocytes [reference compound],stimulation of glucose transport by insulin,insulin 10 nM,approximately 14 fold
same,insulin concentration at which effects can already be detected in vitro,"insulin dose/effect curves, glucose transport",0.1 to 0.2 nM
same,"glucose transport, uptake of 3H-labeled 2-deoxyglucose","no leptin, insulin 0.02 nM",784 dpm
same,"glucose transport, uptake of 3H-labeled 2-deoxyglucose","no leptin, insulin 0.05 nM",1285 dpm
same,"glucose transport, uptake of 3H-labeled 2-deoxyglucose","no leptin, insulin 0.1 nM",2406 dpm
same,"glucose transport, uptake of 3H-labeled 2-deoxyglucose","no leptin, insulin 0.2 nM",4762 dpm
same,"glucose transport, uptake of 3H-labeled 2-deoxyglucose","no leptin, insulin 0.5 nM",6976 dpm
same,"glucose transport, uptake of 3H-labeled 2-deoxyglucose","no leptin, insulin 1 nM",7981 dpm
same,"glucose transport, uptake of 3H-labeled 2-deoxyglucose","no leptin, insulin 2 nM",8576 dpm
same,"glucose transport, uptake of 3H-labeled 2-deoxyglucose","no leptin, insulin 5 nM",8956 dpm
same,"glucose transport, uptake of 3H-labeled 2-deoxyglucose","no leptin, insulin 10 nM",9064 dpm
same,"glucose transport, uptake of 3H-labeled 2-deoxyglucose","no leptin, insulin 50 nM",9072 dpm
same,"Glucose Transport, stimulation factor for insulin (stimulated/basal)","no leptin, Insulin concentration: 5 nM",13.4
